# From patent US9072295B2, “Herbicidal compositions” (Syngenta Participations AG, priority 2011, dated 2015)
# What was measured:
# [1] = tested on: maize varieties (LEXXOR, PACTOL, CLAXXON, GARLAND and SUNDANCE); assay: Greenhouse study: herbicidal damage to maize after pre-emergence PPGO inhibiting herbicides, with or without safener seed treatment; type: in vivo; settings: seed treatment 1 g/kg seed; 8 DAA
# Description: A greenhouse study is performed to evaluate the safener response of various maize varieties to various PPGO inhibiting herbicides. […] Control seed is also included in the test which contains no safener seed treatment. Herbicide treatments are applied pre-emergence, at the indicated application rates, using a laboratory tracksprayer with a TeeJet 11002VS nozzle. The sprayer is set to deliver an output of 200 L/ha by applying an air pressure of 2 bar. The treated and control seeds are then planted in the treated sandy loam soil contained in 10 cm deep plastic trays and watered from the top of the trays as needed.
# [2] = tested on: Winter wheat; assay: Field test: herbicidal damage to winter wheat after pre-emergence fomesafen, with or without safener A seed treatment; settings: seed treatment 100 g/100 kg seed; fomesafen up to 560 g/ha
# Description: Winter wheat seed is treated with safener A (1-[4-(N-2-methoxybenzoylsulfamoyl)phenyl]-3-methylurea) at 100 g safener/100 kg of seed. Control seed is also included which contains no safener seed treatment. The wheat seed is then planted in a field as a randomized block design including four replications.
smiles,measurement,setting,value
"CNC(=O)Nc1ccc(S(=O)(=O)NC(=O)c2ccccc2OC)cc1 [Safener A, 1-[4-(N-2-methoxybenzoylsulfamoyl)phenyl]-3-methylurea]",Safening against sulfentrazone in maize,[1],particularly good safening
same,Safening of the various PPGO inhibiting herbicides tested in maize,[1],highly effective safening
same,Safening of fomesafen in winter wheat,[2],highly effective safening
